{"source": "paper PMC5653977", "about": "(EMBO Molecular Medicine, 2017)", "key": {"[1]": {"target": "EGFR-NTEV-tevS-GV + ERBB3-CTEV (Homo sapiens, UniProt P00533+P21860)", "sequence (P00533 25-1210)": "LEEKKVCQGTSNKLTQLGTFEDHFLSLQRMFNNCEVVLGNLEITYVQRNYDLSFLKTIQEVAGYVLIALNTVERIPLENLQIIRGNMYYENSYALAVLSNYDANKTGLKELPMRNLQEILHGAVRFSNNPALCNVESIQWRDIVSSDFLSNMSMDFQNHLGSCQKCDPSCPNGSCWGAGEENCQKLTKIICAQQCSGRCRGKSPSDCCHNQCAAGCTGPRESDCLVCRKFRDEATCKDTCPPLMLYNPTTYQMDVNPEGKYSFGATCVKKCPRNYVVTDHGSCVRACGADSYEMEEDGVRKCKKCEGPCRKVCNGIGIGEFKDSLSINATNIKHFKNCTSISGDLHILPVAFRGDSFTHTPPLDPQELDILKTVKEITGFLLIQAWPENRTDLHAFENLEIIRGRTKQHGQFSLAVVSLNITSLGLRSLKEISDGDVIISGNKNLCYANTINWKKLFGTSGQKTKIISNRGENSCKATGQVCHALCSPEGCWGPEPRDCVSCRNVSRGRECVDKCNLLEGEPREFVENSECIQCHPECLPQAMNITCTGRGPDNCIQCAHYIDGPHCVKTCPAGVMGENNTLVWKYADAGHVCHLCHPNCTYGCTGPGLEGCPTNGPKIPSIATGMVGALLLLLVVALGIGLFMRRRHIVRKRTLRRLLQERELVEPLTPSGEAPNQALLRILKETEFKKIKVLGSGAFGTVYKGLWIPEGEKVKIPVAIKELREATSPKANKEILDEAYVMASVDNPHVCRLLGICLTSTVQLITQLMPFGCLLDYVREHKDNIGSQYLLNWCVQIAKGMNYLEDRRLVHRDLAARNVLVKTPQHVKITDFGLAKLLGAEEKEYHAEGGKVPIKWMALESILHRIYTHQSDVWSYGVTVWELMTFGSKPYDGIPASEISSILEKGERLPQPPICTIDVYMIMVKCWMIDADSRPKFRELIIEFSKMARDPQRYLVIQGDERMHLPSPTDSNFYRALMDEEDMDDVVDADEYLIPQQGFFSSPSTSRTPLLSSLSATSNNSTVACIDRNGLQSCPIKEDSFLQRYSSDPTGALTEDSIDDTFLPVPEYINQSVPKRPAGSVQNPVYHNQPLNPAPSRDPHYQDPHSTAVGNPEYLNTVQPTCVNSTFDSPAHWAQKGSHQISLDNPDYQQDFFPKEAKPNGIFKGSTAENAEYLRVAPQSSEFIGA", "sequence (P21860 20-1342)": "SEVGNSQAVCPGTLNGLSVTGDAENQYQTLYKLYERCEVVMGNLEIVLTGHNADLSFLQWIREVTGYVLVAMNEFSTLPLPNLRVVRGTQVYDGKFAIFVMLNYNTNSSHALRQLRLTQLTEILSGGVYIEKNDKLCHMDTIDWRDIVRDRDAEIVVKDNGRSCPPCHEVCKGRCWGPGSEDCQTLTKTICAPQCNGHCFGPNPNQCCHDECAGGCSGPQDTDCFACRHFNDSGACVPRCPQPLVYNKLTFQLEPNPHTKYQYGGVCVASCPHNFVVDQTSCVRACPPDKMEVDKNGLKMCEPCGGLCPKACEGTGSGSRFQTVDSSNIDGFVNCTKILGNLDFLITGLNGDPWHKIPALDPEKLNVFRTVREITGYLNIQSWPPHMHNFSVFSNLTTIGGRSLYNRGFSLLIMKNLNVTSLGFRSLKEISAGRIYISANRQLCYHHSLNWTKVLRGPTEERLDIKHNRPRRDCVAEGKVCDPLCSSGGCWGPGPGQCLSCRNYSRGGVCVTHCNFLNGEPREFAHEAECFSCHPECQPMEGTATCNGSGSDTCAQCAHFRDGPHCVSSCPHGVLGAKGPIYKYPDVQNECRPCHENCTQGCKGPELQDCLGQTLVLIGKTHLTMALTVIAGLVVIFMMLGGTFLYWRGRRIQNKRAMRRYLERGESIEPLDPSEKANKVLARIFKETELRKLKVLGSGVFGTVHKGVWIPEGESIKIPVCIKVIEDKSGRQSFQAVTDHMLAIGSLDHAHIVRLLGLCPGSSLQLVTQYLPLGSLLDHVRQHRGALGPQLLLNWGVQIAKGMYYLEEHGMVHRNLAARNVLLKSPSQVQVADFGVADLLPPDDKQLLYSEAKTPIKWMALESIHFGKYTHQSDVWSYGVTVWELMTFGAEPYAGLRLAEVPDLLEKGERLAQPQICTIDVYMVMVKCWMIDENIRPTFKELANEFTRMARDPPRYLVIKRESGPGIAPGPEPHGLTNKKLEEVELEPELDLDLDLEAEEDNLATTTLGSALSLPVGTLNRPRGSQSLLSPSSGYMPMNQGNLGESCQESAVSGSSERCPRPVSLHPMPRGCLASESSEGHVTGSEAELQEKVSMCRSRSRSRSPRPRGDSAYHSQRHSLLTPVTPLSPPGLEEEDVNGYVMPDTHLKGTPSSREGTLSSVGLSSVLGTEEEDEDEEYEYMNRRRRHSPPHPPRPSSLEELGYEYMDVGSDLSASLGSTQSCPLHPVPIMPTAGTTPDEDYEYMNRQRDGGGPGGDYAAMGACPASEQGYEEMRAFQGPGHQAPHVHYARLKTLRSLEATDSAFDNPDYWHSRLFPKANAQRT", "assay": "ERBB dimerization split TEV assay EGFR/ERBB3", "assay_type": "cell-based", "details": "10 ng/ml EGFld", "source_text": "Gateway recombination cloning (Life Technologies) was applied for generating plasmids. Each ORF cloned was PCR‐amplified using the Pwo proofreading DNA polymerase (Roche) and BP‐recombined into the pDONR/Zeo plasmid (Life Technologies) to yield an entry vector, which was control‐digested using BsrGI to release the insert, and sequence‐verified. The following human ORFs were cloned using cDNA image clones ordered from Source BioScience: ERBB4 transcript variant JM‐a/CYT‐1 (Accession: BC112199), PIK3R1 (BC094795), GRB2 transcript variant 1 (BC000631), SHC1 transcript variant 2 (BC014158), STAT5A (BC027036), and SRC transcription variant 1 (BC051270). For EGFR, ERBB2, and ERBB3, entry vectors were obtained from the human CCSB kinase collection available from Addgene (Johannessen et al, 2010). Entry vectors were LR‐recombined into split TEV destination vectors [either pcDNA_attR1‐ORF‐attR2‐NTEV‐tevS‐GV‐2xHA_DEST or pTag4C_attR1‐ORF‐attR2‐CTEV‐2xHA_DEST, plasmids were described in detail before (Wehr et al, 2006)] to yield expression vectors, which were control‐digested using BsrGI. The plasmids for Nrg1 type I β1a and rat Nrg1 type III β1a have been described before (Wehr et al, 2006)."}, "[2]": {"system": "PC12 cells", "assay": "Renilla luciferase readings as toxicity control in dose-response assay", "assay_type": "cell-based", "details": "dose-response co-culture assay, Nrg1 type I β1a, 24 h", "source_text": "For our HTS‐compatible split TEV assay approach, human full‐length ERBB4‐Cyt1 was fused to the NTEV fragment, a TEV protease cleavage site (tevS) and the artificial co‐transcriptional activator Gal4‐VP16 (ERBB4‐NTEV‐tevS‐GV); human PIK3R1 was fused to the CTEV fragment (PIK3R1‐CTEV) (Fig 1A). Upon ERBB4 activation, PIK3R1 is recruited to the receptor resulting in a reconstituted protease activity that cleaves off GV. In turn, released GV translocates to the nucleus and binds to upstream activating sequences (UAS) to activate the transcription of a firefly luciferase reporter gene (Fig 1A). A constitutively expressed Renilla luciferase driven under the control of the human thymidine kinase (TK) promoter was used as control to address off‐target effects related to toxicity."}, "[3]": {"system": "Nrg1-tg and wt mice", "assay": "Fear conditioning", "assay_type": "in vivo, mouse", "details": "50 mg/kg s.c. daily", "procedure": "For behavioral testing, age‐matched male mice (8–16 weeks) on C57Bl/6 background that constitutively overexpress the 2xHA‐tagged Nrg1 type III β1a isoform (Nrg1‐tg) under the control of the mouse Thy1.2 promoter (Velanac et al, 2012) and their wild‐type (wt) littermates as controls were used. Animals were group‐housed in the same ventilated sound‐attenuated rooms under a 12‐h light/12‐h dark schedule (lights on at 8:00 am) at an ambient temperature of 21°C with food and water available ad libitum. One week prior to experiments, mice were separated into single cages and habituated to the experimental rooms. To minimize the influence of the circadian rhythm on drug actions, the treatment groups were analyzed at balanced time points during the light phase. […] All animal experiments were conducted in accordance with NIH principles of laboratory animal care and were approved by the Government of Lower Saxony, Germany, in accordance with the German Animal Protection Law.\nTreatment was continued throughout the behavioral analysis period. To avoid injection‐induced stress prior to behavioral testing, mice were injected in the afternoon, after the entire cohort has completed the behavioral paradigm."}, "[4]": {"parameters": "method as in Zhou et al, 2011; Rimmele et al, 2013", "details": "acute administration; ref Zhou et al, 2011; Rimmele et al, 2013; cited from earlier work"}}, "data": [{"smiles": "CC(=O)S[C@@H]1CC2=CC(=O)CC[C@]2(C)[C@H]2CC[C@@]3(C)[C@@H](CC[C@@]34CCC(=O)O4)[C@H]12", "note": "[Spironolactone]", "values": [{"measurement": "IC50", "setting": "[1]", "result": 2.81, "unit": "µM"}, {"measurement": "toxic effects (reduced Renilla luciferase readings)", "setting": "[2]", "result": "marginal toxic effects at higher concentrations"}, {"measurement": "cue memory", "setting": "[3]", "result": "neither genotype nor treatment‐dependent alterations"}, {"measurement": "freezing in the contextual fear memory test", "setting": "[3]; Nrg1-tg mice", "result": "non‐significant reduction in freezing"}, {"measurement": "memory retrieval in healthy human volunteers", "setting": "[4]", "result": "reduced memory retrieval"}]}]}
